Results on one molecule are retold here after patent publication US20190070128A1, “USE OF CANNABIDIVARIN IN THE TREATMENT OF AUTISM SPECTRUM DISORDER, ASSOCIATED DISORDERS AND SCHIZOPHRENIA” (GW Research Limited, priority 2016, published 2019).

In experiment [1] the test system is PCP-treated rats. The note with it: rat, in vivo; cited from earlier work.
The test system of experiment [2] is PCP-treated rats. In words: social interaction test in sub-chronic PCP treated rats. It is filed as in vivo, rat. How it is done:
(§1) Female hooded-Lister rats were used for this experiment. Rats were housed in groups of 5 under standard laboratory conditions under a 12 hr light: dark cycle, lights on at 0700 hr. Testing was carried out in the light phase.
(§2) Rats were randomly assigned to two treatment groups and treated with vehicle, n=20 (distilled water, i.p.) or Phencyclidine hydrochloride (PCP), n=100 (2 mg/kg, i.p. twice daily for 7-days). PCP was dissolved in distilled water. This was followed by a 7-day wash out period before the rats were tested following acute treatment with CBDV, risperidone or vehicle.
(§3) Risperidone (0.1 mg/kg) was dissolved in a minimum volume of acetic acid, made up to volume with distilled water and pH adjusted to 6 with 0.1M NaOH and administered via the i.p. route in a volume of 1 ml/kg, 60 min prior to testing.
(§4) CBDV at 2, 10 or 20 mg/kg was dissolved in 2:1:17 (Ethanol:Cremofor:Saline 0.9%) and administered via the i.p. route in a volume of 5 ml/kg, 60 min prior to testing.
The social interaction test is performed in an open-field comprising a square box made of Plexiglas (52×52×31 cm) placed 27 cm above the floor on a moveable trolley. The floor of the box is white with black gridlines forming 9 identical squares on it. All other walls are black. A video camera connected to a video recorder and monitor is positioned above the box. The object used for the test consists of a heavy structure made of metal that cannot be displaced by the animals.
The rats were habituated to the test environment and arena prior to the test day. Habituation consists of placing all rats from one cage together in the empty test arena for one hour for three days including the day before the test day.
Pairs of rats, weight matched (15-20 g) and unfamiliar to each other, receiving either no treatment (n=70 “conspecific” rats) or different treatments (PCP and Vehicle; n=10 “tested” rats or PCP+Drug; n=50 “tested” rats) were placed in the test arena together for 10 min and behaviour assessed as described below.
An inanimate object such as an unopened drinks can is also placed in the centre of the arena to measure any differences in interaction of the test animal with an unfamiliar animal as opposed to an unfamiliar object. After each 10 minute trial, the object and arena are cleaned with 10% alcohol in an attempt to remove traces of any olfactory cues. All testing is carried out under standard room illumination levels (70 cd/m2).
Behaviour in both trials was recorded on video for subsequent blind scoring. A behavioural scoring software program (Hindsight, Scientific programming services) is used to score the following parameters: • Investigative sniffing behaviour: sniffing the conspecific's snout or parts of the body including the anogenital region; • Following: rat moves after the conspecific i.e. a vehicle treated rat of the same species, around the arena; • Avoidances: actively turning away when approached by the conspecific animal; • Investigation of object: exploration of object placed in centre of the arena; and • Locomotor activity is recorded by counting the total number of sectors (i.e. lines) crossed by the test rat.

The subject of experiment [3] is PCP-treated rats. In words: novel object recognition test in sub-chronic PCP treated rats. The settings on record: PCP rats; CBDV 2, 10 or 20 mg/kg i.p., risperidone 0.1 mg/kg i.p., 60 min prior to testing. Format: in vivo, rat. How it is done: as §1, §2, §3, §4
Rats were allowed to habituate to the empty test box and the behavioural test room environment for 1 h on day 1. Prior to behavioural testing on day 2 rats are given a further 3 min habituation.
Following the 3 min habituation period, the rats are given two 3 min trials (T1 and T2) which are separated by a 1 min inter-trial interval in the home cage during which the objects are changed. Behaviour in all trials was recorded on video for subsequent blind scoring.
In this trial, the animals are allowed to explore two identical objects (A1 and A2) for 3 min.
In this trial, the animals explore a familiar object (A) from T1 and a novel object (B) for 3 min. The familiar object presented during T2 is a duplicate of the object presented in T1 in order to avoid any olfactory trails.
The object exploration is defined by animals licking, sniffing or touching the object with the forepaws whilst sniffing, but not leaning against, turning around, standing or sitting on the object. The exploration time (s) of each object (A, B, familiar and novel) in each trial are recorded using two stopwatches and the following factors are calculated: • Total exploration time of both objects in the acquisition trial (s). • Total exploration time of both objects in the retention trial (s). • Habituation of exploratory activity includes the exploration time, as measured by the number of lines crossed, for both the trials. • Discrimination index (DI), which is calculated as shown below: […]

For `Cc1nc2n(c(=O)c1CCN1CCC(c3noc4cc(F)ccc34)CC1)CCCC2` [risperidone, reference compound], the “PCP-induced deficit in the novel object recognition test” value in the experiment on PCP-treated rats [1] was “attenuate”. Also, in the experiment on PCP-treated rats [2], the “PCP effects on social interaction (sniffing, following, avoiding)” value is listed as “reverse these effects in a statistically significant manner”. The “time spent following the other rat” value in the experiment with PCP-treated rats [2] (risperidone 0.1 mg/kg, time increased over PCP alone group) is listed as “not seen to be significant”. Further, the “preference between two identical objects, Trial 1 (acquisition)” value in the experiment with PCP-treated rats [3] is on record as “no real preference”.
